Experimental data taken from the supplement of paper PMC6045584.
± gives the standard deviation of the averaged measurements.

These test systems were tested with C[C@]1(O)C[C@@H](c2nc(-c3ccc4ccc(-c5ccccc5)nc4c3)c3c(N)nccn32)C1 [OSI-906] (assay: surviving fraction relative to DMSO-only wells; higher = less growth inhibition). Conditions: 0.5 nM; exposure time: 5 days.
Outline: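 Surviving fraction was calculated by normalising CellTiter-Glo luminescence to the median of DMSO-only wells. Tumour cell lines in log phase were seeded in 384-well plates at 250–500 cells per well, and 24 hours later were exposed continuously for five days to inhibitors at 0.5, 1, 5, 10, 50, 100, 500 and 1000 nM.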
For 22RV1 PROSTATE, the surviving fraction was 0.9557 ± 0.009.
93VU HEADNECK was tested, and the surviving fraction was 0.821 ± 0.057.
Work on 143B BONE yielded a surviving fraction of 1.02 ± 0.048.
Work on A549 LUNG yielded a surviving fraction of 0.932 ± 0.016.
Test System ASKA SYNOVIAL has a surviving fraction of 0.934 ± 0.059.
With BT20 BREAST the surviving fraction was 0.736 ± 0.051.
For BT549 BREAST, the surviving fraction was 0.867 ± 0.08.
CADOES1 SOFT TISSUE gave a surviving fraction of 1.025 ± 0.0076.
CAL51 BREAST was tested, and the surviving fraction was 0.958 ± 0.023.
For CAL72 BONE, the surviving fraction was 1.009 ± 0.006.
CAL120 BREAST showed a surviving fraction of 0.895 ± 0.052.
Test System CASKI CERVIX has a surviving fraction of 0.826 ± 0.028.
CCK81 LARGE INTESTINE was tested, and the surviving fraction was 0.782 ± 0.2.
Test System CHLA90 AUTONOMIC GANGLIA has a surviving fraction of 0.883 ± 0.046.
In the case of CME SYNOVIAL, the surviving fraction is reported as 0.905 ± 0.26.
Test System COLO320DM LARGE INTESTINE has a surviving fraction of 1.03 ± 0.099.
Test System DU4475 BREAST has a surviving fraction of 0.863 ± 0.18.
G292 BONE gave a surviving fraction of 0.923 ± 0.032.
H23 LUNG was tested, and the surviving fraction was 0.902 ± 0.047.
HCC38 BREAST showed a surviving fraction of 0.958 ± 0.13.
In the case of HCC78 LUNG, the surviving fraction is reported as 0.712 ± 0.28.
HCC202 BREAST was tested, and the surviving fraction was 0.918 ± 0.1.
Work on HCC1806 BREAST yielded a surviving fraction of 0.722 ± 0.032.
For HMLE3 BREAST, the surviving fraction was 0.808 ± 0.068.
Test System HMT3552 BREAST has a surviving fraction of 0.916 ± 0.058.
With HOS BONE the surviving fraction was 0.9287 ± 0.0055.
For HOSMNG BONE, the surviving fraction was 0.94 ± 0.099.
For HS57T BREAST, the surviving fraction was 0.862 ± 0.014.
HSSYII SYNOVIAL showed a surviving fraction of 0.8472 ± 0.0081.
For HT1080 SOFT TISSUE, the surviving fraction was 1 ± 0.042.
HU09 BONE gave a surviving fraction of 0.79 ± 0.071.
HUO3N1 BONE showed a surviving fraction of 0.938 ± 0.09.
Test System JIMT1 BREAST has a surviving fraction of 0.921 ± 0.029.
Work on LM7 BONE yielded a surviving fraction of 0.743 ± 0.037.
LNCAP PROSTATE showed a surviving fraction of 1.12 ± 0.058.
Work on MDAMB134 BREAST yielded a surviving fraction of 0.667 ± 0.12.
For MDAMB157 BREAST, the surviving fraction was 0.892 ± 0.048.
Test System MDAMB231 BREAST has a surviving fraction of 0.917 ± 0.034.
For MDAMB361 BREAST, the surviving fraction was 0.669 ± 0.025.
Test System MDAMB436 BREAST has a surviving fraction of 0.805 ± 0.047.
In the case of MDAMB468 BREAST, the surviving fraction is reported as 0.867 ± 0.12.

Same assay, conditions: 1 nM; exposure time: 5 days
22RV1 PROSTATE was tested, and the surviving fraction was 1 ± 0.097.
With 93VU HEADNECK the surviving fraction was 0.793 ± 0.053.
In the case of 143B BONE, the surviving fraction is reported as 0.972 ± 0.028.
For A549 LUNG, the surviving fraction was 0.943 ± 0.028.
Test System ASKA SYNOVIAL has a surviving fraction of 0.99 ± 0.057.
BT20 BREAST was tested, and the surviving fraction was 0.724 ± 0.058.
For BT549 BREAST, the surviving fraction was 0.792 ± 0.027.
Work on CADOES1 SOFT TISSUE yielded a surviving fraction of 1.04 ± 0.024.
With CAL51 BREAST the surviving fraction was 0.924 ± 0.018.
CAL72 BONE was tested, and the surviving fraction was 1 ± 0.018.
In the case of CAL120 BREAST, the surviving fraction is reported as 0.907 ± 0.054.
Work on CASKI CERVIX yielded a surviving fraction of 0.849 ± 0.029.
In the case of CCK81 LARGE INTESTINE, the surviving fraction is reported as 0.815 ± 0.089.
Work on CHLA90 AUTONOMIC GANGLIA yielded a surviving fraction of 0.904 ± 0.019.
For CME SYNOVIAL, the surviving fraction was 0.854 ± 0.13.
In the case of COLO320DM LARGE INTESTINE, the surviving fraction is reported as 1.09 ± 0.065.
Test System DU4475 BREAST has a surviving fraction of 0.825 ± 0.18.
G292 BONE showed a surviving fraction of 0.929 ± 0.035.
With H23 LUNG the surviving fraction was 0.897 ± 0.044.
In the case of HCC38 BREAST, the surviving fraction is reported as 0.883 ± 0.083.
For HCC78 LUNG, the surviving fraction was 0.809 ± 0.2.
HCC202 BREAST showed a surviving fraction of 0.867 ± 0.2.
For HCC1806 BREAST, the surviving fraction was 0.721 ± 0.093.
Test System HMLE3 BREAST has a surviving fraction of 0.887 ± 0.071.
HMT3552 BREAST showed a surviving fraction of 0.942 ± 0.017.
HOS BONE showed a surviving fraction of 0.9223 ± 0.0065.
For HOSMNG BONE, the surviving fraction was 0.941 ± 0.076.
Work on HS57T BREAST yielded a surviving fraction of 0.89 ± 0.068.
HSSYII SYNOVIAL gave a surviving fraction of 0.85 ± 0.027.
In the case of HT1080 SOFT TISSUE, the surviving fraction is reported as 1.02 ± 0.023.
HU09 BONE gave a surviving fraction of 0.852 ± 0.082.
For HUO3N1 BONE, the surviving fraction was 0.933 ± 0.068.
Test System JIMT1 BREAST has a surviving fraction of 0.892 ± 0.02.
Work on LM7 BONE yielded a surviving fraction of 0.717 ± 0.062.
With LNCAP PROSTATE the surviving fraction was 1.07 ± 0.095.
MDAMB134 BREAST showed a surviving fraction of 0.797 ± 0.014.
MDAMB157 BREAST showed a surviving fraction of 0.875 ± 0.11.
With MDAMB231 BREAST the surviving fraction was 0.9167 ± 0.0045.
MDAMB361 BREAST was tested, and the surviving fraction was 0.682 ± 0.024.
MDAMB436 BREAST gave a surviving fraction of 0.875 ± 0.055.
In the case of MDAMB468 BREAST, the surviving fraction is reported as 0.833 ± 0.13.

Same assay, conditions: 5 nM; exposure time: 5 days
Work on 22RV1 PROSTATE yielded a surviving fraction of 0.934 ± 0.11.
With 93VU HEADNECK the surviving fraction was 0.836 ± 0.041.
143B BONE gave a surviving fraction of 1.07 ± 0.071.
A549 LUNG gave a surviving fraction of 0.948 ± 0.0087.
For ASKA SYNOVIAL, the surviving fraction was 1.01 ± 0.011.
BT20 BREAST was tested, and the surviving fraction was 0.776 ± 0.05.
BT549 BREAST gave a surviving fraction of 0.836 ± 0.048.
With CADOES1 SOFT TISSUE the surviving fraction was 0.957 ± 0.096.
CAL51 BREAST was tested, and the surviving fraction was 0.9553 ± 0.0093.
In the case of CAL72 BONE, the surviving fraction is reported as 0.998 ± 0.049.
CAL120 BREAST showed a surviving fraction of 0.937 ± 0.041.
For CASKI CERVIX, the surviving fraction was 0.814 ± 0.049.
In the case of CCK81 LARGE INTESTINE, the surviving fraction is reported as 0.87 ± 0.051.
Test System CHLA90 AUTONOMIC GANGLIA has a surviving fraction of 0.862 ± 0.036.
Work on CME SYNOVIAL yielded a surviving fraction of 0.934 ± 0.15.
COLO320DM LARGE INTESTINE showed a surviving fraction of 1.09 ± 0.023.
Test System DU4475 BREAST has a surviving fraction of 0.726 ± 0.089.
G292 BONE showed a surviving fraction of 0.929 ± 0.04.
Work on H23 LUNG yielded a surviving fraction of 0.931 ± 0.05.
In the case of HCC38 BREAST, the surviving fraction is reported as 1.06 ± 0.09.
HCC78 LUNG showed a surviving fraction of 0.954 ± 0.15.
For HCC202 BREAST, the surviving fraction was 0.966 ± 0.052.
HCC1806 BREAST showed a surviving fraction of 0.783 ± 0.11.
In the case of HMLE3 BREAST, the surviving fraction is reported as 0.931 ± 0.045.
With HMT3552 BREAST the surviving fraction was 0.988 ± 0.057.
HOS BONE showed a surviving fraction of 0.939 ± 0.019.
For HOSMNG BONE, the surviving fraction was 0.948 ± 0.06.
In the case of HS57T BREAST, the surviving fraction is reported as 0.869 ± 0.047.
With HSSYII SYNOVIAL the surviving fraction was 0.9002 ± 0.0069.
HT1080 SOFT TISSUE gave a surviving fraction of 1.02 ± 0.021.
For HU09 BONE, the surviving fraction was 0.956 ± 0.067.
Work on HUO3N1 BONE yielded a surviving fraction of 0.948 ± 0.082.
In the case of JIMT1 BREAST, the surviving fraction is reported as 0.92 ± 0.063.
For LM7 BONE, the surviving fraction was 0.801 ± 0.074.
LNCAP PROSTATE was tested, and the surviving fraction was 1.07 ± 0.036.
With MDAMB134 BREAST the surviving fraction was 0.679 ± 0.039.
For MDAMB157 BREAST, the surviving fraction was 0.949 ± 0.058.
With MDAMB231 BREAST the surviving fraction was 0.937 ± 0.021.
Test System MDAMB361 BREAST has a surviving fraction of 0.721 ± 0.04.
With MDAMB436 BREAST the surviving fraction was 0.887 ± 0.17.
MDAMB468 BREAST was tested, and the surviving fraction was 0.95 ± 0.032.

Same assay, conditions: 10 nM; exposure time: 5 days
Test System 22RV1 PROSTATE has a surviving fraction of 1.01 ± 0.18.
93VU HEADNECK showed a surviving fraction of 0.809 ± 0.13.
143B BONE was tested, and the surviving fraction was 1.04 ± 0.05.
Work on A549 LUNG yielded a surviving fraction of 0.931 ± 0.013.
ASKA SYNOVIAL showed a surviving fraction of 1.07 ± 0.071.
Test System BT20 BREAST has a surviving fraction of 0.763 ± 0.073.
Test System BT549 BREAST has a surviving fraction of 0.88 ± 0.13.
CADOES1 SOFT TISSUE showed a surviving fraction of 1.02 ± 0.036.
CAL51 BREAST gave a surviving fraction of 0.94 ± 0.087.
CAL72 BONE was tested, and the surviving fraction was 0.966 ± 0.058.
Test System CAL120 BREAST has a surviving fraction of 0.942 ± 0.026.
Test System CASKI CERVIX has a surviving fraction of 0.798 ± 0.038.
In the case of CCK81 LARGE INTESTINE, the surviving fraction is reported as 0.784 ± 0.036.
CHLA90 AUTONOMIC GANGLIA gave a surviving fraction of 0.828 ± 0.08.
CME SYNOVIAL was tested, and the surviving fraction was 0.973 ± 0.075.
Test System COLO320DM LARGE INTESTINE has a surviving fraction of 1.01 ± 0.049.
For DU4475 BREAST, the surviving fraction was 0.786 ± 0.12.
With G292 BONE the surviving fraction was 0.919 ± 0.034.
H23 LUNG showed a surviving fraction of 0.904 ± 0.03.
Test System HCC38 BREAST has a surviving fraction of 0.902 ± 0.12.
For HCC78 LUNG, the surviving fraction was 0.94 ± 0.15.
HCC202 BREAST was tested, and the surviving fraction was 0.8315 ± 0.0035.
HCC1806 BREAST gave a surviving fraction of 0.822 ± 0.03.
For HMLE3 BREAST, the surviving fraction was 0.841 ± 0.0091.
Test System HMT3552 BREAST has a surviving fraction of 0.937 ± 0.064.
Work on HOS BONE yielded a surviving fraction of 0.911 ± 0.014.
With HOSMNG BONE the surviving fraction was 0.98 ± 0.062.
HS57T BREAST gave a surviving fraction of 0.902 ± 0.052.
HSSYII SYNOVIAL showed a surviving fraction of 0.798 ± 0.021.
In the case of HT1080 SOFT TISSUE, the surviving fraction is reported as 1 ± 0.017.
HU09 BONE showed a surviving fraction of 0.909 ± 0.043.
In the case of HUO3N1 BONE, the surviving fraction is reported as 0.92 ± 0.053.
JIMT1 BREAST was tested, and the surviving fraction was 0.926 ± 0.03.
Test System LM7 BONE has a surviving fraction of 0.747 ± 0.041.
Work on LNCAP PROSTATE yielded a surviving fraction of 1.11 ± 0.018.
Work on MDAMB134 BREAST yielded a surviving fraction of 0.627 ± 0.037.
Work on MDAMB157 BREAST yielded a surviving fraction of 0.946 ± 0.079.
MDAMB231 BREAST gave a surviving fraction of 0.918 ± 0.03.
Work on MDAMB361 BREAST yielded a surviving fraction of 0.741 ± 0.061.
MDAMB436 BREAST gave a surviving fraction of 0.828 ± 0.054.
Work on MDAMB468 BREAST yielded a surviving fraction of 0.955 ± 0.092.
